Laboratory results reported in patent US20220047698A1, “SYNTHETIC INNATE IMMUNE RECEPTOR LIGANDS AND USES THEREOF” (ALBERTA RESEARCH CHEMICALS INC., priority 2018, published 2022).

Tested on: BALB/c mice
Experiment: Mouse immunization with OVA plus adjuvant combinations, serum IgG1 / IgG2a
Format: in vivo
Conditions: mice vaccinated with OVA and adjuvant combinations, subcutaneous, booster Day 21; for serum IgG1: FIG. 2; for serum IgG2a: FIG. 3
Procedure: Ability of compounds as vaccine adjuvants are assessed through their ability to induce robust immune responses in mice when administered along with a standard experimental antigen, OVA peptide, and compared the balance of Th1 and Th2 responses from their IgG1a and IgG2a responses as well as the cytokine production in mice. It is very common to see the antibody responses to many adjuvants but it is important to see the cellular responses as well which are used as therapeutic vaccines such as cancer vaccines.
Mouse Immunization: Groups of BALB/c mice were immunized with vaccine formulations wherein OVA (50 μg/dose) is combined with PZ (10 μg/dose), PIC (10 μg/dose), and adjuvant alone or in combination (20 μg/dose). In Trial 1, mice (n=8 per group) were immunized subcutaneously with 100 μl total volume with OVA alone, OVA+PZ/PI/52, OVA+52, or saline. In Trial 2, mice (n=8 per group) were immunized subcutaneously with 200 μl total volume with OVA alone, OVA+52, OVA+PZ+PIC, OVA+52+PZ+PI, OVA+(63+97) nanoparticles, or OVA+(52+63+97)nanoparticles, where the number refers to the compound number. The volume was doubled in Trial 2 because the (63+97)Np's were viscous and required more buffer to be easily injected. Mice received a booster immunization on Day 21. Blood was obtained on day 21, day 35 for both trials and 48 for trial 1 only. Mice were euthanized with isofluorane on Day 35 in Trial 2 and Day 48 in Trial 1. Spleens were isolated on day of euthanization.

## CSCC[C@H](NC=O)C(=O)N[C@@H](CC(C)C)C(=O)N[C@@H](Cc1ccccc1)C(=O)NCCNC(=O)[C@H](CCCCN)NC(=O)[C@H](CCCCN)NC(=O)[C@H](CCCCN)NC(=O)[C@H](CO)NC(=O)[C@H](CSCC(COC(=O)CCCCCCCCCCCC(C)C)OC(=O)CCCCCCCCCCCC(C)C)NC(=O)CCCCCCCCCCCC(C)C.Cl.Cl.Cl (stereo partly drawn) [Compound 52, TrilipoCys-Ser-Lys-Lys-Lys-NH—CH2-CH2-NH-F-L-Mf]
  serum IgG1: significant increased production
  serum IgG2a: significant increased production

## CC(=O)N[C@@H]1[C@@H](O[C@H](C)C(=O)N[C@@H](C)C(=O)N[C@@H](CCC(=O)O)C(N)=O)[C@H](O)[C@@H](COC(=O)CCCCCCCCCCCC(C)C)O[C@H]1O [Compound 63, (S)-4-((S)-2-((R)-2-(((2R,3R,4R,5S,6R)-3-acetamido-2,5-dihydroxy-6-(((13-methyltetradecanoyl)oxy)methyl)tetrahydro-2H-pyran-4-yl)oxy)propanamido)propanamido)-5-amino-5-oxopentanoic acid]
  serum IgG1: significant increased production
  serum IgG2a: significant increased production
